Measured values from PubChem BioAssay AID256 (DTP/NCI, 2004).
Where “and” joins values, the source holds several entries; their conditions need not be identical. Identical values can stand only once. Inconclusive results and toxic doses are left out. Rule for the calls: active = survival T/C of 150% or more; inactive = T/C below 125% in these data. Non-standard residues stand in square brackets, D forms with d. Residues, ends and D or L forms follow the SMILES beside them. *: point of attachment. Cbz = O=C(OCc1ccccc1)*; Nva = CCC[CH](N)C(=O)O

Test system: CD2F1 mice, L1210 leukemia ip, survival T/C
Assay: NCI In Vivo Anticancer Drug Screen. Data for tumor model L1210 Leukemia (intraperitoneal) in CD2F1 (CDF1) mice
Details: endpoint: mean survival time, higher = longer survival
Method in brief: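 Read-out first: treated-group measurement over vehicle-control measurement, expressed as a ratio. Animals bore a transplanted tumor line and were dosed with compound or vehicle.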

[1] = dose: 100.0 mg/kg/injection, schedule: Q04DX003 (ip), vehicle: Klucel (hydroxypropylcellulose) (HPC)
[2] = dose: 200.0 mg/kg/injection, schedule: Q04DX003 (ip), vehicle: Klucel (hydroxypropylcellulose) (HPC)
[3] = dose: 400.0 mg/kg/injection, schedule: Q04DX003 (ip), vehicle: Klucel (hydroxypropylcellulose) (HPC)
[4] = dose: 100.0 mg/kg/injection, schedule: Q04DX003 (ip), vehicle: saline
[5] = dose: 200.0 mg/kg/injection, schedule: Q04DX003 (ip), vehicle: saline
[6] = dose: 400.0 mg/kg/injection, schedule: Q04DX003 (ip), vehicle: saline
[7] = dose: 100.0 mg/kg/injection, schedule: Q04DX003 (ip), vehicle: saline with Tween-80
[8] = dose: 200.0 mg/kg/injection, schedule: Q04DX003 (ip), vehicle: saline with Tween-80
[9] = dose: 400.0 mg/kg/injection, schedule: Q04DX003 (ip), vehicle: saline with Tween-80
[10] = dose: 100.0 mg/kg/injection, schedule: Q01DX001 (ip), vehicle: saline with Tween-80
[11] = dose: 200.0 mg/kg/injection, schedule: Q01DX001 (ip), vehicle: saline with Tween-80
[12] = dose: 100.0 mg/kg/injection, schedule: Q01DX009 (ip), vehicle: saline with Tween-80
[13] = dose: 200.0 mg/kg/injection, schedule: Q01DX009 (ip), vehicle: saline with Tween-80
[14] = dose: 400.0 mg/kg/injection, schedule: Q01DX009 (ip), vehicle: saline with Tween-80

Measured: T/C

COC1=C(C)C(=O)C2=C(C1=O)C(COC(N)=O)C1(OC)C3C(CN21)N3C(=O)c1ccccc1 (centres undefined)
inactive: dose: 7.5 mg/kg/injection, schedule: Q01DX001 (ip), vehicle: acetone 106 % of control | dose: 10.0 mg/kg/injection, schedule: Q01DX001 (ip), vehicle: acetone 112 % of control | dose: 15.0 mg/kg/injection, schedule: Q01DX001 (ip), vehicle: acetone 112 % of control

CCCCCC(C=O)C(O)(C(F)(F)F)C(F)(F)Cl (centres undefined)
inactive: [1] 96 % of control | [2] 91 % of control | [3] 96 % of control

C=CCN(CC=C)P(=O)(N1CC1C)N1CC1C (centres undefined)
inactive: dose: 1.0 mg/kg/injection, schedule: Q01DX009 (ip), vehicle: saline 122 % of control | dose: 2.5 mg/kg/injection, schedule: Q01DX001 (ip), vehicle: saline 115 % of control

O=C(O)C1C2CC3OC(=O)C1C3C2 (centres undefined)
inactive: [4] 94 % of control | [5] 93 % of control | [6] 96 % of control

CN(C)S(=O)(=O)C#Cc1ccccc1
inactive: [7] 104 % of control | [8] 97 % of control | [9] 102 % of control

CN(C)/C(=C\C(=O)c1ccccc1)c1ccccc1
inactive: dose: 25.0 mg/kg/injection, schedule: Q04DX003 (ip), vehicle: saline with Tween-80 104 % of control | dose: 50.0 mg/kg/injection, schedule: Q04DX003 (ip), vehicle: saline with Tween-80 108 % of control | [7] 93 % of control

Cc1nc2scc(C)c2c(=S)[nH]1
inactive: [10] 96 % of control | [11] 97 % of control | dose: 400.0 mg/kg/injection, schedule: Q01DX001 (ip), vehicle: saline with Tween-80 88 % of control

CC(=O)SCCNCCOCCC#N
inactive: [12] 97 % of control | [4] 95 % of control | [13] 101 % of control | [5] 101 % of control | [14] 95 % of control | [6] 101 % of control

Cc1ccc(S(=O)(=O)N2CCC(=O)c3ccccc32)cc1
inactive: [12] 95 % of control | [7] 101 % of control | [13] 97 % of control | [8] 98 % of control | [14] 95 % of control | [9] 103 % of control

CS(=O)(=O)OCC(O)C(O)COS(C)(=O)=O (centres undefined)
inactive: dose: 50.0 mg/kg/injection, schedule: Q01DX007 (ip), vehicle: saline 107 % of control | dose: 50.0 mg/kg/injection, schedule: Q01DX009 (ip), vehicle: saline 101 % of control | dose: 50.0 mg/kg/injection, schedule: Q03DX003 (ip), vehicle: saline 104 % of control | dose: 50.0 mg/kg/injection, schedule: Q04DX003 (ip), vehicle: saline 103 % of control | dose: 100.0 mg/kg/injection, schedule: Q01DX007 (ip), vehicle: saline 104 % of control | dose: 100.0 mg/kg/injection, schedule: Q01DX009 (ip), vehicle: saline sonified 102 % of control | dose: 100.0 mg/kg/injection, schedule: Q01DX009 (ip), vehicle: saline 104 % of control | dose: 100.0 mg/kg/injection, schedule: Q03DX003 (ip), vehicle: saline 104 % of control | dose: 100.0 mg/kg/injection, schedule: Q04DX003 (ip), vehicle: saline sonified 100 % of control | [4] 100 % of control | dose: 200.0 mg/kg/injection, schedule: Q01DX007 (ip), vehicle: saline 105 % of control | dose: 200.0 mg/kg/injection, schedule: Q01DX009 (ip), vehicle: saline sonified 96 % of control | dose: 200.0 mg/kg/injection, schedule: Q01DX009 (ip), vehicle: saline 106 % of control | dose: 200.0 mg/kg/injection, schedule: Q03DX003 (ip), vehicle: saline 102 % of control | dose: 200.0 mg/kg/injection, schedule: Q04DX003 (ip), vehicle: saline sonified 108 % of control | [5] 114 % of control | dose: 400.0 mg/kg/injection, schedule: Q01DX009 (ip), vehicle: saline sonified 100 % of control | dose: 400.0 mg/kg/injection, schedule: Q04DX003 (ip), vehicle: saline sonified 102 % of control

Cc1ccccc1NC(=O)C1CCC(C)(C(=O)O)C1(C)C (centres undefined)
inactive: [7] 98 % of control | [8] 93 % of control | [9] 96 % of control

Nc1ncnc2c1nc(N1CCCC1)n2C1OC(CO)C(O)C1O (centres undefined)
inactive: dose: 12.5 mg/kg/injection, schedule: Q01DX005 (ip), vehicle: distilled water + Tween-80 104 % of control and 93 % of control | dose: 25.0 mg/kg/injection, schedule: Q01DX005 (ip), vehicle: distilled water + Tween-80 104 % of control and 98 % of control | dose: 50.0 mg/kg/injection, schedule: Q01DX005 (ip), vehicle: distilled water + Tween-80 102 % of control and 100 % of control | dose: 100.0 mg/kg/injection, schedule: Q01DX005 (ip), vehicle: distilled water + Tween-80 100 % of control and 90 % of control | dose: 200.0 mg/kg/injection, schedule: Q01DX005 (ip), vehicle: distilled water + Tween-80 105 % of control and 97 % of control

CCCC(NC(=O)C(C)NC(=O)OCc1ccccc1)C(N)=O (stereo not drawn) (Cbz-Ala-[Nva]-NH2; configuration not given here)
inactive: [12] 90 % of control | [13] 92 % of control | [14] 92 % of control

C1CC2(CCC13CS3)CS2 (centres undefined)
inactive: dose: 50.0 mg/kg/injection, schedule: Q04DX002 (ip), vehicle: saline with Tween-80 98 % of control | dose: 100.0 mg/kg/injection, schedule: Q04DX002 (ip), vehicle: saline with Tween-80 98 % of control | dose: 200.0 mg/kg/injection, schedule: Q04DX002 (ip), vehicle: saline with Tween-80 95 % of control

CCOc1ccc(Cl)cc1
inactive: dose: 50.0 mg/kg/injection, schedule: Q01DX009 (ip), vehicle: saline with Tween-80 96 % of control | [12] 98 % of control

CC1CC(OC(=O)c2ccccc2)CCC1=O (centres undefined)
inactive: dose: 5.0 mg/kg/injection, schedule: Q01DX001 (ip), vehicle: other 102 % of control | dose: 10.0 mg/kg/injection, schedule: Q01DX001 (ip), vehicle: other 106 % of control | dose: 20.0 mg/kg/injection, schedule: Q01DX001 (ip), vehicle: other 103 % of control | dose: 40.0 mg/kg/injection, schedule: Q01DX001 (ip), vehicle: other 108 % of control | dose: 80.0 mg/kg/injection, schedule: Q01DX001 (ip), vehicle: other 96 % of control

O=C(O)c1cc2ccccc2o1
inactive: [10] 94 % of control | [7] 95 % of control | [11] 98 % of control | [8] 94 % of control

CC(=O)N(C(C)=O)c1ccc2[nH]c3c(N(C(C)=O)C(C)=O)cccc3c2c1
inactive: [1] 97 % of control | [2] 96 % of control | [3] 97 % of control

C#CCOCC(O)C[As](=O)(O)c1cccc(Cl)c1 (centres undefined)
inactive: dose: 6.25 mg/kg/injection, schedule: Q04DX003 (ip), vehicle: saline 104 % of control

Cc1cn(C2CC3OP(=O)(N(C)C)OCC3O2)c(=O)[nH]c1=O (centres undefined)
inactive: dose: 12.5 mg/kg/injection, schedule: Q01DX005 (ip), vehicle: water 105 % of control | dose: 25.0 mg/kg/injection, schedule: Q01DX005 (ip), vehicle: water 100 % of control | dose: 50.0 mg/kg/injection, schedule: Q01DX005 (ip), vehicle: water 109 % of control | dose: 100.0 mg/kg/injection, schedule: Q01DX005 (ip), vehicle: water 97 % of control | dose: 200.0 mg/kg/injection, schedule: Q01DX005 (ip), vehicle: water 103 % of control
